Measured values: US20060270607A1, “Pharmaceutical combinations” (priority 1999, published 2006)

Tests used:
[1] = system: ADP-induced platelet aggregation; test: ADP-induced platelet aggregation, whole blood impedance aggregometry; format: cell-based; conditions: human blood ex vivo; for Aggregation, ADP 10 μM, −compound A: n = 7-8
Method: Human Blood In Vitro—Compound A and Clopidogrel
Compound A (500 nM final concentration) was added to blood from healthy human volunteers receiving clopidogrel (Sanofi-Winthrop, 75 mg/day for 11 days). ADP-induced platelet aggregation (+/−compound A) was measured using whole blood impedance aggregometry.

[2] = system: platelet P-selectin expression; test: ADP-induced platelet P-selectin expression in human washed platelets; format: cell-based; conditions: ADP 10 μM, GR144053 10 μM, compound B 10 nM, Mean ± se (n = 3), Control 13.1 ± 3.3
Method: P-selectin expression on the platelet membrane surface plays an important role in platelet-leukocyte-conjugate formation and there is increasing evidence that such interactions play an important role in both acute thrombosis and in the inflammatory aetiology of progressive atheroscerosis. The effect of a P2T-receptor antagonist (compound B) on ADP (10 μM)-induced platelet P-selectin expression was investigated in human washed platelets. The effect of compound B (10 nM) was compared with that of the GPIIb/IIIa antagonist, GR144053 (10 μM, Foster et al (1993) Thromb Haemostas; 69(6):559, synthesized in AstraZeneca R & D, Charnwood). These concentrations are 4 (compound B)—and 600 (GR144053)—fold higher than the respective IC50 values for inhibition of ADP-induced platelet aggregation in this system.

SMILES	Inhibition of the ADP response (in words) ([1]; clopidogrel alone, 75 mg/day for 11 days)	Aggregation, ADP 10 μM, −compound A ([1]; oral clopidogrel 75 mg/day for 1 day, mean ± SD)	Aggregation, ADP 10 μM, −compound A ([1]; oral clopidogrel 75 mg/day for 2 days, mean ± SD)	Aggregation, ADP 10 μM, −compound A ([1]; oral clopidogrel 75 mg/day for 3 days, mean ± SD)	Aggregation, ADP 300 μM, −compound A ([1]; oral clopidogrel 75 mg/day for 3 days, n=1)	Aggregation, ADP 10 μM, −compound A ([1]; oral clopidogrel 75 mg/day for 11 days, mean ± SD)	Aggregation, ADP 300 μM, −compound A ([1]; oral clopidogrel 75 mg/day for 11 days, mean ± SD, n=3)	P-selectin expression (% positive cells) [2]
COC(=O)[C@H](c1ccccc1Cl)N1CCc2sccc2C1 [clopidogrel]	slowly developing, incomplete inhibition	13.8 ± 2.3 ohms	11.8 ± 3.4 ohms	10.2 ± 4.5 ohms	13.9^(n=1) ohms	8.2 ± 4.4 ohms	11.4 ± 5.2^(n=3) ohms	–
Cl.Cl.Cl.N=C(N)c1ccc(N2CCN(C3CCN(CC(=O)O)CC3)CC2)cc1 [GR144053]	–	–	–	–	–	–	–	17.7 ± 1.7 % positive cells
